Columns and labels:
[1] = test system: A549 cells; experiment: TGF-β1-induced oxidative stress (MDA, Nox4); format: cell-based, human; details: compounds 2 μM, TGF-β1 10 ng/ml 24 h
Description: A549 cells were incubated with compounds k, b, a (2 μM), senexin A (5 μM), or pirfenidone (1 mM) for 1 h, followed by treatment with 10 ng/ml TGF-β1 for a further 24 h. Malondialdehyde (MDA) (FIG. 10A) and Nox4 (FIG. 10B) levels were detected. ***p<0.001 compared to the control group; #p<0.05, ##p<0.01, and ###p<0.001 compared to the TGF-β1-treated group.
An end product of lipid peroxidation, malondialdehyde (MDA), was measured by spectrophotometry at a wavelength of 532 nm using malondialdehyde bis(dimethyl acetal) as the standard as per the assay protocol (Cell Biolabs, USA).

[2] = biological target: CDK8 (Homo sapiens (Human), UniProt P49336); experiment: LanthaScreen Eu Binding Assay, Thermo Fisher SelectScreen kinase service; details: for inhibition at 10 µM: read-out: CDK8 Inhibition percentage at 10 μM; for IC50: read-out: Inhibition of CDK8 IC50
Description: Compounds were tested for kinase inhibitory activity using the Thermo Fisher SelectScreen service (www.thermofisher.com/selectscreen). For CDK8, the LanthaScreen Eu Binding Assay was used. Briefly, the assay employed utilizes a fluorescent tracer to a given kinase. This is used to detect the addition of an anti-tag antibody. When the tracer and antibody bind to the targeted kinase, the Forster resonance energy transfer is measured. When a kinase inhibitor is added to the assay, the tracer/kinase binding will be disrupted, producing low FRET detection and indicating kinase inhibitory activity. Evaluation of kinase activity of additional kinase targets utilized the LanthaScreen binding assay or the Z′-Lyte activity assay provided by Thermo Fisher SelectScreen service. The IC50 values were determined using sequential doses, and the inhibition curves were provided by Thermo Fisher Scientific.
The fragment-based drug design strategy in this study led to optimized CDK8 inhibitors with promising results. CDK8-inhibitory activities of the compounds (a-n) designed by this fragment-based drug design strategy were tested using the SelectScreen kinase service of ThermoFisher Scientific. The inhibitory effects of the 14 compounds and the referenced compound were tested at a concentration of 10 μM.

[3] = test system: A549 cells; experiment: Wound-healing migration assay; format: cell-based, human; details: compounds 2 μM, senexin A 5 μM, pirfenidone 1 mM; TGF-β1 10 ng/mL; 24 or 48 h
Description: A549 cells were incubated in six-well plates until reaching 90% confluency, scratched with a pipette tip, and immediately photographed (0 h). Cells were incubated with or without compound k (2 μM), senexin A (5 μM), or pirfenidone (1 mM) for 1 h, then treated with TGF-β1 (10 ng/mL) and allowed to migrate into the wound area for 24 or 48 h, and photographed. Cell migration into the wound was quantified using ImageJ software; the solid line indicates time zero. Quantitative assessment of the mean number of cells in the denuded zone is expressed as the mean±SEM from three independent experiments. **p<0.01 compared to the control group; ##p<0.01 and ###p<0.001 compared to TGF-β1-treated group.
Cells were seeded in six-well plates and cultured to 90% confluency, at which time the cellular monolayer was wounded with a sterile 10-μL pipette tip and washed with culture medium to remove detached cells. Cells were incubated in the presence or absence of test compounds for 24 h and photographed. The wound closure percentages were subsequently determined using ImageJ software (National Institutes of Health, USA).

[4] = test system: A549 cells; experiment: TGF-β1-induced EMT protein expression, western blot; format: cell-based, human; details: test compounds 2 μM, senexin A 5 μM, pirfenidone 1 mM; TGF-β1 10 ng/mL
Description: FIGS. 4A-4B show the inhibition of epithelial-to-mesenchymal transition protein expressions by CDK8 inhibitors in human alveolar epithelial cells. […] Cell lysates were subjected to a Western blot analysis using the indicated antibodies. Results are shown as the mean t SEM from three independent experiments. *p<0.05, and ***p<0.001 compared to the control group; #p<0.05, ##p<0.01, and ###p<0.001 compared to the TGF-β1-treated group. […] Cell viabilities were determined by an MTT assay. Results are shown as the mean t SEM of three independent experiments.
(§1) Cells (106) were incubated for 10 min at 4° C. in lysis buffer (20 mM HEPES at pH 7.4, 2 mM EGTA, 50 mM β-glycerophosphate, 0.1% Triton X-100, 10% glycerol, 1 mM DTT, 1 μg/mL of leupeptin, 5 μg/mL of aprotinin, 1 mM phenylmethylsulfonyl fluoride, and 1 mM sodium orthovanadate), scraped off, incubated on ice for an additional 10 min, and centrifuged at 17,000 g for 30 min at 4° C. Protein samples (20 μg) were then electrophoresed on SDS-polyacrylamide gel electrophoresis (PAGE) gels and transferred to a nitrocellulose membrane, which was then blocked by incubation for 30 min at room temperature with 5% bovine serum albumin (BSA) in Tris-buffered saline with 0.1% Tween-20 (TBST). Immunoblotting was performed by overnight incubation at 4° C. with primary antibodies in TBST, followed by incubation for 1 h at room temperature with horseradish peroxidase (HRP)-conjugated secondary antibodies. Bound antibodies were measured using enhanced chemiluminescence (ECL) reagent (GE Healthcare, UK) and exposed to photographic film.

[5] = test system: A549 cells; experiment: Nuclear p-Smad3 T179 and RNA polymerase II pS2/S5 after TGF-β1, fractionation and western blot; format: cell-based, human; details: compound k 5 μM, senexin A 5 μM, pirfenidone 1 mM; TGF-β1 10 ng/ml 3 h
Description: FIGS. 8A-8B show the inhibitory effects of cellular distributions of TGF-β1-induced p-Smad3 T179, RNA polymerase II pS2/S5, and Smad3 after treatment with compound k. Human alveolar epithelial A549 cells were incubated with compound k (5 μM), senexin A (5 μM), or pirfenidone (1 mM) for 1 h, followed by stimulation with TGF-β1 (10 ng/ml) for 3 h. Protein expressions in the cytoplasmic and nuclear fractions were subjected to a Western blot analysis using the indicated antibodies. α-Tubulin and histone H3 served as loading controls for the cytoplasmic and nuclear fractions, respectively. Results are shown as the mean±SEM of three independent experiments. **p<0.01 and ***p<0.001 compared to the control group; #p<0.05 and ##p<0.01 compared to the TGF-β1-treated group.
as §1
A Nuclear/Cytosol Fractionation Kit (Biovision, USA) was used to separate the cytosolic and nuclear fractions. […]

Chain of CDK8 (P49336 whole entry, looked up): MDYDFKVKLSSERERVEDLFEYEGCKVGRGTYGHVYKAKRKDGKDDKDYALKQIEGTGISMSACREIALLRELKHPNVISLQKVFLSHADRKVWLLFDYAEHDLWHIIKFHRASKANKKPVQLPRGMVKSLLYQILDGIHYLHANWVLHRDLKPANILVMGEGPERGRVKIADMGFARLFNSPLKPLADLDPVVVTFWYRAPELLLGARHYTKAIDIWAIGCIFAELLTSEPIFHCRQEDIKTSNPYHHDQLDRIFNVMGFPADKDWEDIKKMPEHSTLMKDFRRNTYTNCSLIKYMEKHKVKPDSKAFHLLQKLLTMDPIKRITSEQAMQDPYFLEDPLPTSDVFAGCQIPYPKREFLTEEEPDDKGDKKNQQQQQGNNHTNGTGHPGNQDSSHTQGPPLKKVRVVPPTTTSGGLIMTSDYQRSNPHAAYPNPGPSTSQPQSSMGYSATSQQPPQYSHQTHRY
Chain of CDK8 (P24863 whole entry partner, looked up): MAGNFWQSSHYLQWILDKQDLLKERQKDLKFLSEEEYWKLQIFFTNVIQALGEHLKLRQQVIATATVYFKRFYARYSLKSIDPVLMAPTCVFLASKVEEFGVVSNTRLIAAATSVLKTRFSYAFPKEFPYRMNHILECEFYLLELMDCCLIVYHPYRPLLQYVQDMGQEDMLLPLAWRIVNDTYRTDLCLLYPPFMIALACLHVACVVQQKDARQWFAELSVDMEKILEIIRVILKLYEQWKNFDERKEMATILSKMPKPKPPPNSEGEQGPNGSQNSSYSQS

SMILES	inhibition at 10 µM [2]	IC50 [2]	CDK8 Inhibition percentage at 10 μM [2]	further results
CC(C)=C1C(=O)Nc2ccc(S(=O)(=O)Nc3ccc(Oc4ccc([N+](=O)[O-])cc4)cc3)cc21 [Compound a, N-(4-(4-Nitrophenoxy)phenyl)-2-oxo-3-(propan-2-ylidene)indoline-5-sulfonamide]	48%			TGF-β1-caused oxidative stress (MDA and Nox4 levels) [1]: less-potent inhibition; inhibition of cell migration [3]: less inhibition; TGF-β1-triggered EMT protein expressions [4]: no significant reduction
CC(C)=C1C(=O)Nc2ccc(S(=O)(=O)Nc3ccc(Nc4ccccc4)cc3)cc21 [Compound b, 2-Oxo-N-(4-(phenylamino)phenyl)-3-(propan-2-ylidene)indoline-5-sulfonamide]	76%	1570 nM		TGF-β1-caused oxidative stress (MDA and Nox4 levels) [1]: less-potent inhibition; inhibition of cell migration [3]: less inhibition; TGF-β1-triggered EMT protein expressions [4]: slight reduction
CC(C)=C1C(=O)Nc2ccc(S(=O)(=O)Nc3ccc(NC(=O)c4ccccc4)cc3)cc21 [Compound c, N-(4-((2-Oxo-3-(propan-2-ylidene)indoline)-5-sulfonamido)phenyl)benzamide]			33%	
CC(C)=C1C(=O)Nc2ccc(S(=O)(=O)Nc3ccc(C(=O)c4ccccc4)cc3)cc21 [Compound d, N-(4-Benzoylphenyl)-2-oxo-3-(propan-2-ylidene)indoline-5-sulfonamide]	99%	380 nM		
CC(C)=C1C(=O)Nc2ccc(S(=O)(=O)Nc3cc(-c4ccccc4)[nH]n3)cc21 [Compound e, 2-Oxo-N-(5-phenyl-1H-pyrazol-3-yl)-3-(propan-2-ylidene)indoline-5-sulfonamide]	82%	1640 nM		
CC(C)=C1C(=O)Nc2ccc(S(=O)(=O)Nc3cc(-c4ccc(C)cc4)[nH]n3)cc21 [Compound f, 2-Oxo-3-(propan-2-ylidene)-N-(5-(p-tolyl)-1H-pyrazol-3-yl) indoline-5-sulfonamide]		798 nM	89%	
CC(C)=C1C(=O)Nc2ccc(S(=O)(=O)Nc3nnc(-c4ccccc4)s3)cc21 [Compound g, 2-Oxo-N-(5-Phenyl-1,3,4-thiadiazol-2-yl)-3-(propan-2-ylidene) indoline-5-sulfonamide]		338 nM	99%	
CC(C)=C1C(=O)Nc2ccc(S(=O)(=O)Nc3nc4ccccc4s3)cc21 [Compound h, N-(Benzo[d]thiazol-2-yl)-2-oxo-3-(propan-2-ylidene)indoline-5-sulfonamide]	91%	870 nM		
CC(C)=C1C(=O)Nc2ccc(S(=O)(=O)Nc3ccc(-n4ccnc4)cc3)cc21 [Compound i, N-(4-(1H-imidazol-1-yl)phenyl)-2-oxo-3-(propan-2-ylidene) indoline-5-sulfonamide]		945 nM	92%	
CNC(=O)c1cc(Oc2ccc(NS(=O)(=O)c3ccc4c(c3)C(=C(C)C)C(=O)N4)cc2)ccn1 [Compound j, N-Methyl-4-(4-((2-oxo-3-(propan-2-ylidene)indoline)-5-sulfonamido)phenoxy)picolinamide]		1240 nM	85%	
CNC(=O)c1ccc(NS(=O)(=O)c2ccc3c(c2)C(=C(C)C)C(=O)N3)cc1F [Compound l, 2-Fluoro-N-methyl-4-((2-oxo-3-(propan-2-ylidene)indoline)-5-sulfonamido)benzamide]		652 nM	92%	
CC(C)=C1C(=O)Nc2ccc(S(=O)(=O)Nc3ccc(C)c(Nc4nccc(-c5cccnc5)n4)c3)cc21 [Compound m, N-(4-Methyl-3-((4-(pyridin-3-yl)pyrimidin-2-yl)amino)phenyl)-2-oxo-3-(propan-2-ylidene)indoline-5-sulfonamide]	46%			
CC(C)=C1C(=O)Nc2ccc(S(=O)(=O)Nc3cccc4c(=O)[nH][nH]c(=O)c34)cc21 [Compound n, N-(1,4-Dioxo-1,2,3,4-tetrahydrophthalazin-5-yl)-2-oxo-3-(propan-2-ylidene)indoline-5-sulfonamide]	74%	3000 nM		
CC(=O)c1cccc(NS(=O)(=O)c2ccc3c(c2)C(=C(C)C)C(=O)N3)c1 [Reference Compound, N-(3-acetylphenyl)-2-oxo-3-(propan-2-ylidene)-indoline-5-sulfonamide, reference compound]	87%	1680 nM		
Cc1ccc(=O)n(-c2ccccc2)c1 [pirfenidone, reference compound]				phosphorylation of p-Smad3 T179 and RNA Pol II pSer2/5 [5]: less-potent inhibition; TGF-β1-triggered EMT protein expressions [4]: slight inhibition
